Test results published in paper PMC5128750, “Structure–Activity Relationship Studies Using Natural and Synthetic Okadaic Acid/Dinophysistoxin Toxins” (Marine Drugs, 2016).
“And” between values parts separate entries of the source, which are not always exact repeats. Equal entries are not always repeated. Where two headings read alike, the source gives them in different places.

Columns and labels:
[1] = tested on: Jurkat T lymphocyte cells; test: cells; type: cell-based, human
[2] = molecular target: T1, PP2A (Homo sapiens, UniProt P67775); test: biochemical; type: biochemical
T1 construct: purified PP2A (EMD Millipore Corporation, Darmstadt, Germany, cat. #14-111; human red blood cells); purchased EMD Millipore Corporation 14-111; host or cells: human red blood cells (tissue-purified)
T1 sequence (P30153 2-589): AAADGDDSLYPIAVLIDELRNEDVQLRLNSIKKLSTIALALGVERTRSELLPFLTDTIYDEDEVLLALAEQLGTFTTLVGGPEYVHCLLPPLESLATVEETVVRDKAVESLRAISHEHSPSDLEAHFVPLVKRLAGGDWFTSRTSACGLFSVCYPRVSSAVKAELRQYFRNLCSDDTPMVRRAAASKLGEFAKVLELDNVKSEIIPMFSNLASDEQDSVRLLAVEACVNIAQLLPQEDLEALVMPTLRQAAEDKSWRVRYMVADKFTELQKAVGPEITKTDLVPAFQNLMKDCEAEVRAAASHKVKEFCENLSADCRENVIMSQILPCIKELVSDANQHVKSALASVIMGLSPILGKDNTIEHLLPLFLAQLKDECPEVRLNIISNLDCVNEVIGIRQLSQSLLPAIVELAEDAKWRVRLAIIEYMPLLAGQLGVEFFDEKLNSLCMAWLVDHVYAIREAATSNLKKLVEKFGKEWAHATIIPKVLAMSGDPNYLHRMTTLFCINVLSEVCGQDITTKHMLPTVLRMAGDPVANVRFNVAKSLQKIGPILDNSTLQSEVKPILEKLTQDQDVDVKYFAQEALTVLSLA
T1 sequence (P67775 whole entry): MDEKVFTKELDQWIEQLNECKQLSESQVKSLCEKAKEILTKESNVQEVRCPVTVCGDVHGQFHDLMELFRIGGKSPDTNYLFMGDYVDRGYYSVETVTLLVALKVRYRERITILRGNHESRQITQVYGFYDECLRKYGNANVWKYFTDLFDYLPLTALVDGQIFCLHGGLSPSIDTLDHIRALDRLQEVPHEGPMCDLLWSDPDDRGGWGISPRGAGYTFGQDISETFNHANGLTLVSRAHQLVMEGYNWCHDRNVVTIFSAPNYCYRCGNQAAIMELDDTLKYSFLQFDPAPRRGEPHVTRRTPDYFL

[3] = tested on: PP1; type: biochemical, rabbit
[4] = tested on: PP2a; settings: relative to OA, using data from Aune et al. and Takai et al.; cited from earlier work
[5] = tested on: mice; settings: relative to OA, cited from earlier work; for TEF (European Food Safety Authority): based on LD50 values from exposed mice
[6] = molecular target: T2, PP5 (Homo sapiens, UniProt P53041); test: PP5 inhibition, fluorimetric DiFMUP assay; type: biochemical; design: purchased EMD Millipore Corporation 14-778; host or cells: E. coli; settings: for IC50: PP5, DiFMUP 50 μM; for Rel. Potency / TEF: PP5, relative to OA
T2 sequence (P53041 1-499): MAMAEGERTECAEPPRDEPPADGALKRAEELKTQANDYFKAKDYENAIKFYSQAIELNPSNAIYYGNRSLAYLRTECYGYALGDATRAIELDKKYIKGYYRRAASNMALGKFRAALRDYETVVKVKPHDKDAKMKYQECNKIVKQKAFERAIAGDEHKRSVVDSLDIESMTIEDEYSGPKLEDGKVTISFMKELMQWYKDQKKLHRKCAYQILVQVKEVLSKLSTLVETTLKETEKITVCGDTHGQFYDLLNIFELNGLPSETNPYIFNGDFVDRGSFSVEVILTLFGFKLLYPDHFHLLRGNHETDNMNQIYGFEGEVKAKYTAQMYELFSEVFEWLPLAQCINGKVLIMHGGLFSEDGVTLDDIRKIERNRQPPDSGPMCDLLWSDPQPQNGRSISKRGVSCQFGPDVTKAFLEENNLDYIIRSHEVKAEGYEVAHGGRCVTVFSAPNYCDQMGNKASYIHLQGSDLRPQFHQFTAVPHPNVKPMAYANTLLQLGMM
Experimental: Figure 3 Effect of various DSP toxins on protein phosphatase activity. The activities of protein phosphatases (A) PP2a, (B) PP1, and (C) PP5 were assessed in the presence of various concentrations of natural OA, natural DTX1, natural DTX2, synthetic DTX2, or synthetic 2-epi-DTX2. All data (mean ± SE; n = 3 or 4) were normalized to the control. […], variable slope, non-linear dose-response analysis was performed and IC50 and 95% confidence interval values were calculated (Table 2).
Preliminary studies were conducted by Millipore (EMD Millipore Corporation, Darmstadt, Germany) using their PhosphataseProfiler that assessed the activities of 21 human and yeast phosphatases in the presence of DTX2. Phosphatase sensitivities to DTX2 were more extensively characterized using 96-well fluorescence-based assays in the presence of various natural and synthetic OA/DTXs. Briefly, the assay tests the ability of toxins to inhibit the activity of purified PP2A (EMD Millipore Corporation, Darmstadt, Germany, cat. #14-111; human red blood cells), purified PP1 (EMD Millipore Corporation, Darmstadt, Germany, cat. #14-110; rabbit skeletal muscle), or purified PP5 (EMD Millipore Corporation, Darmstadt, Germany, cat. #14-778; recombinant enzyme expressed in E. coli cells) against the fluorimetric substrate, 6,8-difluro-4-methyl umbelliferyl phosphate (DiFMUP; 50 μM final) (Invitrogen ThermoFisher Scientific, Waltham, MA, USA, cat. #D6567). DiFMUP solutions were preincubated with toxins or vehicle controls (all containing 1% DMSO final) for 10 min prior to addition of one of the PP enzymes (0.4, 0.4, and 0.02 units/well for PP2a, PP1, and PP5). PP2a assays were performed in Tris-HCl (40 mM, pH 8.4), MgCl2 (34 mM), EDTA (4 mM), and DTT (4 mM), PP1 assays were performed in Tris-HCl (100 mM, pH 7.5), MnCl2 (0.5 mM), EDTA (0.2 mM), DTT (4 mM) and BSA (0.4 mg/mL), and PP5 assays were performed in HEPES (57 mM, pH 7.2), NaCl (150 mM), EDTA (1 mM), MnCl2 (1 mM), DTT (0.167 mM), glycerol (0.83%), BSA (0.167 mg/mL), Brij-35 (0.002%) (EMD Millipore Corporation, Darmstadt, Germany, pers. comm.). All reactions (50 μL) were performed in black, 96-well, half area plates (Corning Incorporated, Corning, NY, USA) for 2 h at 35 °C with 5 s orbital shaking (ca. 600 rpm) just prior to each reading (every 2 min). PP activity was determined by measuring the fluorescence (excitation 360 nm, emission 470 nm) of each well using a fluorometric plate reader (Fluostar, BMG Lab Technologies, Ortenberg, Germany). All data (mean ± SE, n ≥ 3) are presented as normalized percentages relative to vehicle controls (100%). IC50 determinations were calculated using four-parameter, variable slope, non-linear regression analysis (GraphPad Prism, ver. 5.0c, San Diego, CA, USA).

[7] = molecular target: T3, PP1α (Homo sapiens, UniProt P62136); type: biochemical; settings: 200 nM, n = 2
T3 construct: purchased EMD Millipore Corporation (PhosphataseProfiler service)
T3 sequence (P62136 whole entry): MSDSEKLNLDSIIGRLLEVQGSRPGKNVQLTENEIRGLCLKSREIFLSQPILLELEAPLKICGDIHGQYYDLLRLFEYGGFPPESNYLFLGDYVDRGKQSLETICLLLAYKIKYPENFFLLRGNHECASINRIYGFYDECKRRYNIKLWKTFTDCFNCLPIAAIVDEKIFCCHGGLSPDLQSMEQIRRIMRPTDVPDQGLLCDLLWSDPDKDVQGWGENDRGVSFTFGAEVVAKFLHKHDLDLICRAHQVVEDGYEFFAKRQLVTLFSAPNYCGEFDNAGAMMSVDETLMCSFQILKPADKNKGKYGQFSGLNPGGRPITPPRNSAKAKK

[8] = molecular target: T1, PP2A; type: biochemical; settings: 200 nM, n = 2
[9] = tested on: CD45, DUSP22, HePTP, LMPTP-A, LMPTP-B, MKP5, PTPMEG1, PTP-MEG2, PTP-1B, PTPN22, PTPβ, RPTPμ, SHP-1, SHP-2, TCPTP, TMDP, VHR, YopH; type: biochemical, human and yeast; settings: 200 nM, n = 2
[10] = molecular target: T2, PP5; type: biochemical; design: purchased EMD Millipore Corporation (PhosphataseProfiler service); settings: 200 nM, n = 2

| Compound | Rel. Potency (as per 48 h Data) / TEF [1] | EC50 ([1]; Homo sapiens, Jurkat, 24 h) [nM] | EC50 ([1]; Homo sapiens, Jurkat, 48 h) [nM] | EC50 ([1]; Homo sapiens, Jurkat, 72 h) [nM] | IC50 [2] | Rel. Potency / TEF [2] | IC50 [3] [nM] | Rel. Potency / TEF [3] | TEF by Huhn et al. [4] | TEF (European Food Safety Authority) [5] | IC50 [6] | Rel. Potency / TEF [6] | Inhibition of phosphatase activity [7] | Inhibition of phosphatase activity [8] | Inhibition of phosphatase activity [9] | TEF proposed by Aune et al. [5] | Inhibition of phosphatase activity [10] | IC50 ([2]; IC50) | EC50 [1] |
| --- | --- | --- | --- | --- | --- | --- | --- | --- | --- | --- | --- | --- | --- | --- | --- | --- | --- | --- | --- |
| C=C1C(O)C2OC3(CCC(C=CC(C)C4CC(C)=CC5(OC(CC(C)(O)C(=O)O)CCC5O)O4)O3)CCC2OC1C(O)CC(C)C1OC2(CCC1C)OCCCC2C (centres unmarked) [nat. DTX1, Dinophysistoxin-1] | 0.9 and 0.87 | 24.6 | 22.2 | 11.4 | 0.31 nM and 0.306 nM | 1.5 and 1.523 | 34.8 | 0.72 and 0.724 | 1.58 | 1 | 1.3 nM | 1.8 and 1.769 | – | – | – | – | – | – | – |
| C=C1C(O)C2OC3(CCC(C=CC(C)C4CC(C)=CC5(OC(CC(C)(O)C(=O)O)CCC5O)O4)O3)CCC2OC1C(O)CC(C)C1CCCC2(OCCCC2C)O1 (centres unmarked) [nat. DTX2, Dinophysistoxin-2] | 1.6 and 1.58 | – | – | – | 0.99 nM and 0.987 nM | 0.472 | 76.4 | 0.330 | 0.48 | 0.6 | 5.2 nM and 5.25 nM | 0.438 | inhibited | inhibited | only PP1α, PP2a, and PP5 were inhibited | 0.6 | inhibited | – | – |
| C=C1[C@@H](O)[C@@H]2O[C@]3(CC[C@H](/C=C/[C@@H](C)[C@@H]4CC(C)=C[C@@]5(O[C@H](C[C@@](C)(O)C(=O)O)CC[C@H]5O)O4)O3)CC[C@H]2O[C@@H]1[C@@H](O)C[C@H](C)[C@H]1O[C@@]2(CCCCO2)CC[C@H]1C [nat. OA, Okadaic Acid] | 1.000 | 32.8 | 19.5 | 9.16 | – | 1.000 | 25.2 | 1.000 | – | 1 | 2.3 nM | 1.000 | – | – | – | – | – | 0.47 nM and 0.466 nM | – |
| C=C1C(O)C2OC3(CCC(C=CC(C)C4CC(C)=CC5(OC(CC(C)(O)C(=O)O)CCC5O)O4)O3)CCC2OC1C(O)CC(C)C1CCCC2(OCCCC2C)O1 (stereo not drawn) [syn. 2-epi-DTX2, 2-epi-dinophysistoxin-2] | 0.004 | – | – | – | 137 nM | 0.003 | 3110 | 0.008 | – | – | 541 nM | 0.004 | – | – | – | – | – | – | 4750 nM and 4260 nM and 3740 nM |
| C=C1C(O)C2OC3(CCC(C=CC(C)C4CC(C)=CC5(OC(CC(C)(O)C(=O)O)CCC5O)O4)O3)CCC2OC1C(O)CC(C)C1CCCC2(OCCCC2C)O1 (stereo not drawn) [syn. DTX2, Dinophysistoxin-2] | 1.1 and 1.07 | – | – | – | 1.35 nM | 0.345 | 82.6 | 0.305 | – | – | 4 nM and 3.95 nM | 0.582 | – | – | – | – | – | – | 21.8 nM and 18.2 nM and 15.4 nM |
